# Source: patent US20230028441A1, “NOVEL HETEROARYL-TRIAZOLE COMPOUNDS AS PESTICIDES” (Bayer Aktiengesellschaft, priority 2019, published 2023)
# What was measured:
# Assay type in all cases: in vivo
# [1] = test system: larvae of the banded cucumber beetle (Diabrotica balteata); experiment: Diabrotica balteata spray test; conditions: 168 h, after 7 days, wheat seeds, read-out: efficacy (seedlings grown up); for pest or weed control at 32 µg/disc, 100 g/ha: 100 g/ha (=32 μg/well)
# Procedure, shortened: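 Germinated wheat seedlings (5 per well, agar plates) sprayed with compound in acetone/DMF diluted in water with 1000 ppm emulsifier, then infested with 10-20 larvae per unit. Efficacy scored after 7 days as % seedling growth relative to untreated, uninfested control (100% = normal growth, 0% = none).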
# [2] = test system: fall armyworm larvae (Spodoptera frugiperda); experiment: Spodoptera frugiperda spray test (maize leaf sections); conditions: 168 h
# Procedure, shortened: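 Maize leaf sections were sprayed with compound formulated in acetone/DMF and diluted in water containing 1000 ppm emulsifier. Once dry, sections were infested with fall armyworm larvae. Mortality (%) was scored after 7 days.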
# [3] = test system: brown planthopper (Nilaparvata lugens); experiment: Nilaparvata lugens spray test; conditions: in Oryza sativa, 96 h
# Procedure, shortened: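 Rice plants (Oryza sativa) sprayed with compound in acetone/DMF diluted in water containing 1000 ppm alkylarylpolyglycol ether emulsifier, then infested with planthoppers. Mortality % scored after 4 days (100% = all killed, 0% = none killed).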
# [4] = test system: cattle tick larvae (Rhipicephalus microplus), strain Parkhurst, resistant against synthetic pyrethroids; experiment: Rhipicephalus (Boophilus) microplus in-vitro contact test, larval cattle tick; conditions: 5 μg/cm^2 (=500 g/ha), after 48 hours, read-out: efficacy (larvae dead or moribund)
# Procedure, shortened: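 Acetone solutions of compound were coated on glass tube walls (900 ppm giving 5 μg/cm^2) and dried. 20–50 pyrethroid-resistant Parkhurst larvae were held per tube at 27° C and 85% relative humidity; after 48 h negative geotaxis scored efficacy as percent larvae dead or moribund.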
# [5] = test system: adult cat fleas (Ctenocephalides felis); experiment: Ctenocephalides felis in-vitro contact test, adult cat flea; conditions: 5 μg/cm^2 (=500 g/ha), after 48 hours, read-out: efficacy (fleas dead or moribund)
# Procedure: 9 mg compound is solved in 1 mL acetone and diluted with acetone to the desired concentration. 250 μL of the test solution is filled in 25 mL glass test tubes and homogeneously distributed on the inner walls by rotation and tilting on a shaking device (2 h at 30 rpm). With a compound concentration of 900 ppm, an inner surface of 44.7 cm^2 and a homogeneous distribution, a dose of 5 μg/cm^2 is achieved.
# After the solvent has evaporated, each test tube is filled with 5-10 adult cat fleas (Ctenocephalides felis), closed with a perforated lid and incubated in a lying position at room temperature and relative humidity. After 48 hours efficacy is determined. The fleas are patted on the ground of the tubes and are incubated on a heating plate at 45-50° C. for at most 5 minutes. Immotile or uncoordinated moving fleas, which are not able to escape the heat by climbing upwards, are marked as dead or moribund.
# An efficacy of 100% means all fleas are dead or moribund; 0% means no fleas are dead or moribund.
# [6] = test system: green peach aphid (Myzus persicae); experiment: Myzus persicae spray test; conditions: foliar, 120 h, after 5 days, Chinese cabbage leaf disks
# Procedure: Solvent: 78.0 parts by weight acetone • 1.5 parts by weight dimethylformamide
# Emulsifier: alkylarylpolyglycol ether
# To produce a suitable preparation of active compound, 1 part by weight of active compound is mixed with the stated amount of solvents and is diluted with water, containing an emulsifier concentration of 1000 ppm, to the desired concentration. Further test concentrations are prepared by dilution with emulsifier containing water.
# Chinese cabbage (Brassica pekinensis) leaf disks infected with all instars of the green peach aphid (Myzus persicae), are sprayed with a preparation of the active ingredient of the desired concentration.
# After 5 days mortality in % is determined. 100% means all aphids have been killed and 0% means none of the aphids have been killed.
# [7] = test system: adult brown dog ticks (Rhipicephalus sanguineus); experiment: Rhipicephalus sanguineus in-vitro contact test with adult brown dog ticks; conditions: after 48 hours, read-out: efficacy (ticks dead or moribund); for pest or weed control at 1 µg/cm2, 100 g/ha: 1 μg/cm^2 (=100 g/ha); for pest or weed control at 5 µg/cm2, 500 g/ha: 5 μg/cm^2 (=500 g/ha)
# Procedure, shortened: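 Compound in acetone coated onto glass tube inner walls at 900 ppm, giving 5 μg/cm^2. Adult ticks (5-10 per tube) held at room temperature for 48 h, then placed on a 45-50° C. heating plate for up to 5 min. Ticks unable to climb away counted dead or moribund; efficacy given as % dead/moribund.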
# [8] = test system: larvae of the southern green stink bug (Nezara viridula); experiment: Nezara viridula spray test; conditions: in Hordeum vulgare, 96 h
# Procedure, shortened: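 Barley plants infested with Nezara viridula larvae were sprayed with compound in acetone/dimethylformamide, diluted in water containing 1000 ppm alkylarylpolyglycol ether emulsifier. Mortality (%) was scored after 4 days; 100% means all stink bugs killed.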
# [9] = test system: green peach aphid (Myzus persicae); experiment: Myzus persicae oral test; conditions: 120 h
# Procedure, shortened: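 Compound was dissolved at 1 part by weight in 100 parts acetone, then diluted with water to test concentration and combined with IPL41 insect medium (33%+15% sugar). A mixed aphid population fed on this through a parafilm seal, and mortality (%) was scored after 5 days.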
# [10] = test system: adult engorged female ticks (Rhipicephalus microplus); experiment: Rhipicephalus (Boophilus) microplus injection test; conditions: 168 h, 4 μg/animal, egg deposition after 7 days, read-out: efficacy (infertile eggs)
# Procedure, shortened: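 Compound was dissolved in DMSO at 10 mg per 0.5 mL and diluted with DMSO to the test concentration. Five engorged adult females received a 1 μL abdominal injection and were kept in a climate chamber. After 7 days, fertile egg deposition was scored, with unclear eggs held until hatching at about 42 days; 100% efficacy means all eggs were infertile.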
# [11] = test system: adult unfed cat fleas (Ctenocephalides felis); experiment: Ctenocephalides felis oral test; conditions: 48 h, 100 ppm in cattle blood, after 2 days
# Procedure, shortened: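 About 20 adult unfed Ctenocephalides felis fed through parafilm on cattle blood dosed with compound (DMSO stock diluted in blood), blood chamber at 37°C, fleas at room temperature. Mortality (%) scored after 2 days; 100% means all fleas killed.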
SMILES,"pest or weed control at 32 µg/disc, 100 g/ha [1] [%]",mortality at 100 g/ha [2] [%],mortality at 500 g/ha [3] [%],pest or weed control at 5 µg/cm2 [4] [%],pest or weed control at 5 µg/cm2 [5] [%],mortality at 100 g/ha [6] [%],"pest or weed control at 1 µg/cm2, 100 g/ha [7] [%]","pest or weed control at 5 µg/cm2, 500 g/ha [7] [%]",mortality at 500 g/ha [8] [%],mortality at 4 ppm [9] [%],mortality at 500 g/ha [6] [%],pest or weed control at 0.004 mg [10] [%],mortality at 100 ppm [11] [%],mortality at 100 g/ha [8] [%],"pest or weed control at 160 µg/disc, 500 g/ha ([1]; 500 g/ha (=160 μg/well)) [%]"
"C[C@H](NC(=O)c1cc(C(F)(F)F)cc(C(F)(F)F)c1)c1nc(N)nn1-c1ncccn1 [I-134, N-[(1S)-1-(5-amino-2-pyrimidin-2-yl-1,2,4-triazol-3-yl)ethyl]-3,5-bis(trifluoromethyl) benzamide]",100,100,100,100,100,100,100,100,100,–,–,–,–,–,–
CC(NC(=O)c1cc(OC(F)(F)F)cc(S(C)(=O)=O)c1)c1nc(N(C)C)nn1-c1ncc(Cl)cn1 (stereo not shown) [I-192],100,100,100,–,–,90,–,–,100,–,–,–,–,–,–
CC(NC(=O)c1cc(C(F)(F)F)cc(C(F)(F)F)c1)c1nc(N(C)C)nn1-c1ncc(Cl)cn1 (stereo not shown) [I-165],100,100,100,–,–,90,–,–,100,–,–,–,–,–,–
CON(C)c1nc([C@H](C)NC(=O)c2cc(C(F)(F)F)cc(S(C)(=O)=O)c2)n(-c2ncccn2)n1 [I-153],–,–,100,–,–,90,–,–,100,–,–,–,–,–,–
C[C@H](NC(=O)c1cc(Cl)cc(C(C)(C)C#N)c1)c1nc(N(C)C)nn1-c1ncc(Cl)cn1 [I-178],100,100,100,–,–,90,–,–,100,–,–,–,–,–,–
C[C@H](NC(=O)c1cc(OC(F)(F)F)cc(S(=O)(=O)C2CC2)c1)c1nc(N)nn1-c1ncccn1 [I-187],100,–,100,–,–,90,–,–,100,–,–,–,–,–,–
"CNc1nc([C@H](C)NC(=O)c2cc(C(F)(F)F)cc(C(F)(F)F)c2)n(-c2ncccn2)n1 [I-127, N-[(1S)-1-[5-(methylamino)-2-pyrimidin-2-yl-1,2,4-triazol-3-yl]ethyl]-3,5-bis(trifluoromethyl)benzamide]",100,100,90,100,100,90,100,100,100,–,–,–,–,–,–
"C[C@H](NC(=O)c1cc(Cl)cc(S(C)(=O)=O)c1)c1nc(N)nn1-c1ccc(C#N)cn1 [I-148, N-[(1S)-1-[5-amino-2-(5-cyano-2-pyridyl)-1,2,4-triazol-3-yl]ethyl]-3-chloro-5-methylsulfonyl-benzamide]",100,100,100,90,–,90,–,–,100,–,–,–,–,–,–
CC(NC(=O)c1cc(Br)cc(OC(F)(F)F)c1)c1nc(N)nn1-c1ncccn1 (stereo not shown) [I-095],100,–,–,100,90,–,–,–,90,100,90,–,–,–,–
CNc1nc([C@H](C)NC(=O)c2cc(Cl)cc(S(=O)(=O)C(F)F)c2)n(-c2ncccn2)n1 [I-202],100,100,100,–,–,90,–,–,100,–,–,–,–,–,–
CON(C)c1nc([C@H](C)NC(=O)c2cc(Cl)cc(C(C)(C)C#N)c2)n(-c2ncccn2)n1 [I-163],100,100,100,–,–,100,–,–,100,–,–,–,–,–,–
CC(NC(=O)c1cc(Cl)cc(OC(F)(F)F)c1)c1nc(N)nn1-c1ncccn1 (stereo not shown) [I-090],100,100,–,90,90,90,–,–,–,–,–,100,100,–,–
CC(NC(=O)c1cc(C(F)(F)F)cc(C(F)(F)F)c1)c1nc(N)nn1-c1ncccn1 (stereo not shown) [I-007],100,100,–,100,100,90,100,100,–,100,–,100,100,100,–
CNc1nc([C@H](C)NC(=O)c2cc(OC(F)(F)F)cc(S(=O)(=O)C3CC3)c2)n(-c2ncccn2)n1 [I-184],100,–,100,–,–,90,–,–,100,–,–,–,–,–,–
C[C@H](NC(=O)c1cc(Cl)cc(S(C)(=O)=O)c1)c1nc(N(C)C)nn1-c1ncc(Cl)cn1 [I-179],100,100,100,–,–,90,–,–,100,–,–,–,–,–,–
"CC(NC(=O)c1cc(Cl)cc(S(C)(=O)=O)c1)c1nc([S+](C)[O-])nn1-c1ccc(Cl)cn1 (racemic) [I-061, 3-chloro-N-[1-[2-(5-chloro-2-pyridyl)-5-methylsulfinyl-1,2,4-triazol-3-yl]ethyl]-5-methylsulfonyl-benzamide]",–,–,–,–,–,–,–,–,100,100,90,–,–,100,100
